Assay results as given in patent US9365522B2, “Pyrazole amide derivative” (AMGEN INC., priority 2015, dated 2016).

Molecular target: T1, ligand binding domain of human ROR gamma (Homo sapiens, UniProt P51449)
T1 construct: NM_001001523; expressed in transfected cells; host or cells: HEK293T
T1 sequence (P51449 247-497 isoform P51449-2): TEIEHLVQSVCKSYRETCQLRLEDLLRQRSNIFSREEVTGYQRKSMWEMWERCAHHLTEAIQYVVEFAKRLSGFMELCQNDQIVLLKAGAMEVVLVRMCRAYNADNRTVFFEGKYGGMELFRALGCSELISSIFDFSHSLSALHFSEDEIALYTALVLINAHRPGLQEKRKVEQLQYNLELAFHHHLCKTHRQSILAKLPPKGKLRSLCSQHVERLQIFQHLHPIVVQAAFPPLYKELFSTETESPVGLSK
Experiment: ROR gamma reporter gene assay (GAL4-RORγ LBD luciferase, Dual-Glo)
Format: cell-based
Conditions: HEK293T cells transfected with pM-ROR gamma, 8 concentrations 3.5 nM to 10.5 μM, 24 h incubation; read-out: result (pIC50, inhibition of RORγ transcriptional activity) (converted)
How it was run: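 HEK293T cells co-transfected with GAL4-DBD fused to human RORγ LBD (aa 247-497), 5×UAS firefly luciferase reporter and CMV-renilla, in charcoal-stripped serum.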

Structure (SMILES) | IC50 [pM]
CCC(F)(CC)CN(CC(=O)c1c(Cl)cncc1Cl)C(=O)c1cnn([C@H]2CC[C@](C)(C(=O)O)CC2)c1C(F)(F)F [Example 394, trans-4-(4-((2-(3,5-dichloropyridin-4-yl)-2-oxoethyl)-(2-ethyl-2-fluorobutyl)carbamoyl)-5-(trifluoromethyl)pyrazol-1-yl)-1-methylcyclohexane-1-carboxylic acid] | 20400
CC1(C)CCC(N(CC(=O)c2c(Cl)cc(F)cc2Cl)C(=O)c2cnn([C@H]3CC[C@](C)(C(=O)O)CC3)c2Cl)CC1 [Example 345, trans-4-(5-chloro-4-((2-(2,6-dichloro-4-fluorophenyl)-2-oxoethyl)-(4,4-dimethylcyclohexyl)carbamoyl)pyrazol-1-yl)-1-methylcyclohexane-1-carboxylic acid] | 26300
CC1(C)CC[C@H](N(CC(=O)c2c(Cl)cncc2Cl)C(=O)c2cnn([C@H]3CC[C@H](C(=O)O)CC3)c2C(F)(F)F)C1 [Example 184, trans-4-(4-((2-(3,5-dichloropyridin-4-yl)-2-oxoethyl)-((1S)-3,3-dimethylcyclopentyl)carbamoyl)-5-(trifluoromethyl)pyrazol-1-yl)cyclohexane-1-carboxylic acid] | 162000
O=C(CN(Cc1cc(F)cc(F)c1)C(=O)c1cnn([C@H]2CC[C@H](C(=O)O)CC2)c1C(F)(F)F)c1cc[nH]n1 [Example 8, trans-4-(4-((3,5-difluorobenzyl)(2-oxo-2-(1H-pyrazol-3-yl)ethyl)carbamoyl)-5-(trifluoromethyl)-1H-pyrazol-1-yl)cyclohexanecarboxylic acid] | > 1e+07
CC1(C)[C@@H]2C[C@H](N(CC(=O)c3c(Cl)cccc3OC(F)F)C(=O)c3cnn([C@H]4CC[C@](C)(C(=O)O)CC4)c3C(F)(F)F)C[C@@H]21 [Example 400, trans-4-(4-((2-(2-chloro-6-(difluoromethoxy)phenyl)-2-oxyethyl)((1R,3r,5S)-6,6-dimethylbicyclo[3.1.0]hexan-3-yl)carbamoyl)-5-(trifluoromethyl)-1H-pyrazol-1-yl)-1-methylcyclohexanecarboxylic acid] | 28800
CC12CCC(CN(CC(=O)c3c(Cl)cncc3Cl)C(=O)c3cnn([C@H]4CC[C@H](C(=O)O)CC4)c3C(F)(F)F)(CC1)C2 [Example 192, trans-4-(4-((2-(3,5-dichloropyridin-4-yl)-2-oxoethyl)-((1-methyl-4-bicyclo[2.2.1]heptanyl)methyl)carbamoyl)-5-(trifluoromethyl)pyrazol-1-yl)cyclohexane-1-carboxylic acid] | 11700
CN1C2CCC1CC(N(CC(=O)c1c(Cl)cc(F)cc1Cl)C(=O)c1cnn([C@H]3CC[C@](C)(C(=O)O)CC3)c1C(F)(F)F)C2 (stereo partly drawn) [Example 303, trans-4-(4-((2-(2,6-dichloro-4-fluorophenyl)-2-oxoethyl)-(8-methyl-8-azabicyclo[3.2.1]octan-3-yl)carbamoyl)-5-(trifluoromethyl)pyrazol-1-yl)-1-methylcyclohexane-1-carboxylic acid] | > 3.47e+06
CC1(C)CCC(N(CC(=O)c2c(Cl)cccc2C(F)(F)F)C(=O)c2cnn(C34CCC(C(=O)O)(CC3)CC4)c2C(F)(F)F)CC1 [Example 242, 4-(4-((2-(2-chloro-6-(trifluoromethyl)phenyl)-2-oxoethyl)-(4,4-dimethylcyclohexyl)carbamoyl)-5-(trifluoromethyl)pyrazol-1-yl)bicyclo[2.2.2]octane-1-carboxylic acid] | 31600
Nc1ccccc1C(=O)CN(Cc1cc(F)cc(F)c1)C(=O)c1cnn([C@H]2CC[C@H](C(=O)O)CC2)c1C(F)(F)F [Example 142, trans-4-(4-((2-(2-aminophenyl)-2-oxoethyl)-((3,5-difluorophenyl)methyl)carbamoyl)-5-(trifluoromethyl)pyrazol-1-yl)cyclohexane-1-carboxylic acid] | 6.61e+06
CC(C)(C)C#CCN(CC(=O)c1c(Cl)cc(Cl)cc1Cl)C(=O)c1cnn([C@H]2CC[C@](C)(C(=O)O)CC2)c1C(F)(F)F [Example 207, trans-4-(4-(4,4-dimethylpent-2-ynyl-(2-oxo-2-(2,4,6-trichlorophenyl)ethyl)carbamoyl)-5-(trifluoromethyl)pyrazol-1-yl)-1-methylcyclohexane-1-carboxylic acid] | 63100
CC1(C)[C@@H]2C[C@H](N(CC(O)c3ncncc3Cl)C(=O)c3cnn([C@H]4CC[C@](C)(C(=O)O)CC4)c3C(F)(F)F)C[C@@H]21 (stereo partly drawn) [Example 408, trans-4-(4-((2-(5-chloropyrimidin-4-yl)-2-hydroxyethyl)((1R,3r,5S)-6,6-dimethylbicyclo[3.1.0]hexan-3-yl)carbamoyl)-5-(trifluoromethyl)-1H-pyrazol-1-yl)-1-methylcyclohexanecarboxylic acid] | 331000
CC1(C)CC(N(CC(=O)c2c(Cl)cncc2Cl)C(=O)c2cnn([C@H]3CC[C@H](C(=O)O)CC3)c2C(F)(F)F)CO1 (stereo partly drawn) [Example 208, trans-4-(4-((2-(3,5-dichloropyridin-4-yl)-2-oxoethyl)-(5,5-dimethyloxolan-3-yl)carbamoyl)-5-(trifluoromethyl)pyrazol-1-yl)cyclohexane-1-carboxylic acid] | 302000
CC(C)(C)CN(CCc1c[nH]c2cccc(Cl)c12)C(=O)c1cnn([C@H]2CC[C@](C)(C(=O)O)CC2)c1C(F)(F)F [Example 334, trans-4-(4-(2-(4-chloro-1H-indol-3-yl)ethyl-(2,2-dimethylpropyl)carbamoyl)-5-(trifluoromethyl)pyrazol-1-yl)-1-methylcyclohexane-1-carboxylic acid] | 56200
O=C(CN(Cc1ccc(Cl)cc1)C(=O)c1cnn([C@H]2CC[C@H](C(=O)O)CC2)c1C(F)(F)F)c1c(Cl)cncc1Cl [Example 41, trans-4-(4-((4-chlorobenzyl)(2-(3,5-dichloropyridin-4-yl)-2-oxoethyl)carbamoyl)-5-(trifluoromethyl)-1H-pyrazol-1-yl)cyclohexanecarboxylic acid] | 29500
CC(C)(C)CN(CC(=O)c1c(F)cccc1Cl)C(=O)c1cnn([C@H]2CC[C@](C)(C(=O)O)CC2)c1C(F)(F)F [Example 297, trans-4-(4-((2-(2-chloro-6-fluorophenyl)-2-oxoethyl)-(2,2-dimethylpropyl)carbamoyl)-5-(trifluoromethyl)pyrazol-1-yl)-1-methylcyclohexane-1-carboxylic acid] | 66100
C[C@]1(C(=O)O)CC[C@H](n2ncc(C(=O)N(CC(=O)c3c(Cl)cc(F)cc3Cl)C3CC4CCC(C3)N4)c2C(F)(F)F)CC1 (stereo partly drawn) [Example 304, trans-4-(4-(8-azabicyclo [3.2.1]octan-3-yl-(2-[2,6-dichloro-4-fluorophenyl)-2-oxoethyl)carbamoyl)-5-(trifluoromethyl)pyrazol-1-yl)-1-methylcyclohexane-1-carboxylic acid] | > 1.05e+07
O=C(CN(CC1CCC2(CC1)CC2)C(=O)c1cnn([C@H]2CC[C@H](C(=O)O)CC2)c1C(F)(F)F)c1c(Cl)cncc1Cl [Example 37, trans-4-(4-((2-(3,5-dichloropyridin-4-yl)-2-oxoethyl)(spiro[2.5]octan-6-ylmethyl)carbamoyl)-5-(trifluoromethyl)-1H-pyrazol-1-yl)cyclohexanecarboxylic acid] | 18600
Cc1cc(Cl)c(C(=O)CN(C(=O)c2cnn([C@H]3CC[C@](C)(C(=O)O)CC3)c2C(F)(F)F)C2CCC(C)(C)CC2)c(Cl)c1 [Example 227, trans-4-(4-((2-(2,6-dichloro-4-methylphenyl)-2-oxoethyl)-(4,4-dimethylcyclohexyl)carbamoyl)-5-(trifluoromethyl)pyrazol-1-yl)-1-methylcyclohexane-1-carboxylic acid] | 3980
CC1(C)[C@@H]2C[C@H](N(CC(=O)c3c(Cl)cccc3Cl)C(=O)c3cnn(C45CCC(C(=O)O)(CC4)CC5)c3C(F)(F)F)C[C@@H]21 [Example 320, 4-(4-((2-(2,6-dichlorophenyl)-2-oxoethyl)((1R,3r,5S)-6,6-dimethylbicyclo[3.1.0]hexan-3-yl)carbamoyl)-5-(trifluoromethyl)-1H-pyrazol-1-yl)bicyclo [2.2.2] octane-1-carboxylic acid] | 9770
Cc1cc(Cl)c(C(=O)CN(C(=O)c2cnn(C34CCC(C(=O)O)(CC3)CC4)c2C(F)(F)F)[C@H]2C[C@@H]3[C@H](C2)C3(C)C)c(Cl)c1 [Example 321, 4-(4-((2-(2,6-dichloro-4-methylphenyl)-2-oxoethyl)((1R,3r,5S)-6,6-dimethylbicyclo[3.1.0]hexan-3-yl)carbamoyl)-5-(trifluoromethyl)-1H-pyrazol-1-yl)bicyclo[2.2.2]octane-1-carboxylic acid] | 11700
COc1cccc(Cl)c1C(=O)CN(C(=O)c1cnn([C@H]2CC[C@](C)(C(=O)O)CC2)c1C(F)(F)F)C1CCC(C)(C)CC1 [Example 255, trans-4-(4-((2-(2-chloro-6-methoxyphenyl)-2-oxoethyl)-(4,4-dimethylcyclohexyl)carbamoyl)-5-(trifluoromethyl)pyrazol-1-yl)-1-methylcyclohexane-1-carboxylic acid] | 55000
CC(C)(C)[S+]([O-])CCN(CC(=O)c1c(Cl)cc(F)cc1Cl)C(=O)c1cnn([C@H]2CC[C@](C)(C(=O)O)CC2)c1C(F)(F)F (stereo partly drawn) [Example 351, trans-4-(4-(2-tert-butylsulfinylethyl-(2-(2,6-dichloro-4-fluorophenyl)-2-oxoethyl)carbamoyl)-5-(trifluoromethyl)pyrazol-1-yl)-1-methylcyclohexane-1-carboxylic acid] | 7.24e+06
